What was measured:
MV4-11 = assay: Cytotoxicity assay (Cell Titer-Blue, 72 h); assay type: cell-based; conditions: Homo sapiens; MV4-11 (AML); read-out: In cellulo IC50 MV4-11
MRC-9 = assay: Cytotoxicity assay (Cell Titer-Blue, 72 h); assay type: cell-based; conditions: MRC9; MRC-9 (healthy fibroblasts); read-out: In cellulo IC50 MRC-9
MOLM-13 = assay: Cytotoxicity assay (Cell Titer-Blue, 72 h); assay type: cell-based; conditions: Homo sapiens, AML, one representative of three experiments, read-out: IC50 (heat map) MOLM-13
KHYG-1 = assay: Cytotoxicity assay (Cell Titer-Blue, 72 h); assay type: cell-based; conditions: ANKL, one representative of three experiments, read-out: IC50 (heat map) KHYG-1
NK-92 = assay: Cytotoxicity assay (Cell Titer-Blue, 72 h); assay type: cell-based; conditions: NK92; LGL; one representative of three experiments; read-out: IC50 (heat map) NK-92
SNK6 = assay: Cytotoxicity assay (Cell Titer-Blue, 72 h); assay type: cell-based; conditions: T/NK cell lymphoma, one representative of three experiments, read-out: IC50 (heat map) SNK6
DERL-2 = assay: Cytotoxicity assay (Cell Titer-Blue, 72 h); assay type: cell-based; conditions: γδ T-NHL; one representative of three experiments; read-out: IC50 (heat map) DERL-2
Hut78 = assay: Cytotoxicity assay (Cell Titer-Blue, 72 h); assay type: cell-based; conditions: Homo sapiens, CTCL, one representative of three experiments, read-out: IC50 (heat map) Hut78
Method: (§1) The PTCL cell lines, KHYG-1, NK-92, SNK6, DERL-2, Mac1, 1305 Myla, Hut78, SU-DHL-1 or T-ALL cell lines SUP-T11, DND-41, and MOLT4 were maintained in RPMI-1640 supplemented with 10% FBS, 0.06 g/L penicillin/0.1 g/L streptomycin (Pen/Strep, Gibco), and 2 mM L-glutamine (Gibco). Culture media of KHYG-1, NK-92, SNK6, and DERL-2 cells was additionally supplemented with 2.5 ng/mL recombinant human IL-2 (ImmunoTools GmbH, Germany). The authenticity of PTCL cell lines was confirmed by analysis of highly polymorphic short tandem repeat loci (STR) using the PowerPlex 16 HS System (Promega; performed by Microsynth AG, Switzerland).
(§2) Cells were plated in 96-well flat-bottom sterile culture plates with low-evaporation lids (Costar #3997). The inhibitors and a vehicle control (0.5% DMSO) were added to the cells following 24 h. After 72 h, Cell Titer-Blue (Promega #G808A) was added to each well (20 μL), and the fluorescence was measured at 560/590 nm using a Cytation S63 spectrophotometer (BioTek) or a GloMax Discover Microplate Reader (Promega, Madison, WI, USA). GraphPad Prism 6.0 (GraphPad Software Inc.) was used to determine the IC50 values.

Mac1 = assay: Cytotoxicity assay (Cell Titer-Blue, 72 h); assay type: cell-based; conditions: ALK- ALCL; one representative of three experiments; read-out: IC50 (heat map) Mac1
Method: as §1, §2

Myla = assay: Cytotoxicity assay (Cell Titer-Blue, 72 h); assay type: cell-based; conditions: CTCL; one representative of three experiments; read-out: IC50 (heat map) Myla
SU-DHL-1 = assay: Cytotoxicity assay (Cell Titer-Blue, 72 h); assay type: cell-based; conditions: Homo sapiens, ALK+ ALCL, one representative of three experiments, read-out: IC50 (heat map) SU-DHL-1
SUP-T11 = assay: Cytotoxicity assay (Cell Titer-Blue, 72 h); assay type: cell-based; conditions: SUPT11; T-ALL/T-PLL like; one representative of three experiments; read-out: IC50 (heat map) SUP-T11
DND-41 = assay: Cytotoxicity assay (Cell Titer-Blue, 72 h); assay type: cell-based; conditions: DND41; T-ALL; one representative of three experiments; read-out: IC50 (heat map) DND-41
MOLT4 = assay: Cytotoxicity assay (Cell Titer-Blue, 72 h); assay type: cell-based; conditions: Homo sapiens, MOLT-4; T-ALL; one representative of three experiments; read-out: IC50 (heat map) MOLT4
[1] = system: NHF (normal human fibroblasts); assay: Cytotoxicity assay (Cell Titer-Blue, 72 h); assay type: cell-based; conditions: Fibroblast, read-out: Cellular IC50 NHF
[2] = system: HUVEC (primary human umbilical vein endothelial cells); assay: Cytotoxicity assay (Cell Titer-Blue, 72 h); assay type: cell-based; conditions: read-out: Cellular IC50 HUVEC
[3] = system: pPF (primary pooled fibroblasts from 250 donors); assay: Cytotoxicity assay (Cell Titer-Blue, 72 h); assay type: cell-based; conditions: Fibroblast, read-out: Cellular IC50 pPF
[4] = In vivo PK study in CD-1 male mice; conditions: mouse, plasma, CD-1 mice, IP, 20 mg/kg
MV4-11 cells = assay: FACS apoptosis detection assay (Annexin V/PI); assay type: cell-based; conditions: MV4-11, 18 h
Method: MV4-11 cells were prepared, dosed, and washed with cold 1× PBS. The resulting cell pellets were resuspended in 1× Binding Buffer (1 × 10^6 cell/mL) from the FITC Annexin V Apoptosis Detection Kit I (BD Pharmingen). Subsequently, the dyes annexin V (5 μL) and propidium iodide (PI, 5 μL) were added to 2.5 × 10^5 cells (250 μL). The suspension was thoroughly mixed and incubated in the dark for 15 min. Following the addition of 250 μL of 1× binding buffer, the cells were analyzed by flow cytometry within 1 h using the Cytoflex S system (Beckman Coulter).

acetylation of α-tubulin = assay: Immunofluorescence assay in HeLa cells; assay type: cell-based; conditions: 6 h, increasing doses
Method: HeLa cells were plated to subconfluency on a 96-well plate (clear bottom black from Fisher Scientific). As above, inhibitors were introduced following 24 h. The cells were washed with 1× PBS, fixed with 4% formaldehyde (Millipore Sigma), permeabilized with 1% Triton X-100 (Millipore Sigma), and blocked in 5% bovine serum albumin (BSA) (BioShop) for 1 h at room temperature. Following this treatment, the cells were incubated in a cocktail composed of acetylated α-tubulin mouse monoclonal (1:100 dilution, MD Millipore) and acetylated histone H3 (1:50 dilution, Ac-Lys18, Sigma) antibodies. Secondary antibodies anti-mouse Alexa Fluor 647 and anti-rabbit Alexa Fluor 488 were used for immunofluorescent detection. Cells were counterstained for nucleic acids using 4′,6-diamidino-2-phenylindole (DAPI) (ThermoFisher Scientific). The cells were imaged with a Cytation S63 spectrophotometer and the fluorescence intensity was determined using ImageJ (n = 3). Two-way ANOVA with Tukey’s multiple comparisons test were performed using GraphPad Prism 6.0 (GraphPad Software Inc.). A p-value ≤ 0.05 was considered significant.

acetylated histone H3 = assay: Western blot in MV4-11 cells; assay type: cell-based; conditions: MV4-11, 6 h
Method: (§3) Briefly, MV4-11 cells were incubated with inhibitors prior to cell lysis with radioimmunoprecipitation assay (RIPA) buffer (20 mM Tris pH 7.4, 150 mM NaCl, 0.5% deoxycholate, 1% Triton X-100, and 0.1% sodium dodecyl sulfate (SDS)). Total protein content was determined through a BCA assay (ThermoFisher), resolved via a 4–20% polyacrylamide SDS gel, and transferred to a nitrocellulose membrane (Bio-Rad). The membranes were blocked with a 5% solution (skimmed milk powder in PBS-T). This was followed by incubation at 4 °C (overnight) with the following antibodies: acetylated α-tubulin mouse monoclonal (MABT868, EMD Millipore), acetylated histone H3 (Ac-Lys18, 07–354, Sigma), PARP-1 (ab227244, Abcam), apoptosis Western blot cocktail (136812, Abcam), cleaved PARP-1 (ab32561, Abcam), and HSC70 (sc-7298, Santa Cruz). Following overnight incubation, horseradish peroxidase (HRP)-conjugated goat anti-mouse IgG secondary antibody (7076, Cell Signaling) or HRP-linked anti-rabbit IgG secondary antibody (7074, Cell Signaling) was applied to the membrane in a 1:5000 dilution. The bands were visualized using clarity Western ECL substrate luminal/enhancer solution and peroxide solution. Western blotting analysis was carried out using Image lab software (Bio-Rad).[47],[50],[70]

[5] = system: cleavage of PARP-1 and Caspase-3; assay: Western blot of apoptosis markers in MV4-11 cells; assay type: cell-based; conditions: MV4-11, 6 h, 5 μM
Method: as §3

## O=C(CCCCCCNC(=O)c1cnc(N(c2ccccc2)c2ccccc2Cl)nc1)NO [Citarinostat]
MV4-11
  IC50: 1340 nM
MRC-9
  IC50: > 30000 nM
MOLM-13
  IC50: 1980 nM
KHYG-1
  IC50: 1200 nM
NK-92
  IC50: 1970 nM
SNK6
  IC50: 1900 nM
DERL-2
  IC50: 1020 nM
Hut78
  IC50: 3770 nM
Mac1
  IC50: 1780 nM
Myla
  IC50: 7970 nM
SU-DHL-1
  IC50: 4660 nM
SUP-T11
  IC50: 3940 nM
DND-41
  IC50: 1960 nM
MOLT4
  IC50: 1720 nM
[1]
  IC50: 5740 nM
[2]
  IC50: 4860 nM
[3]
  IC50: 7440 nM
[4]; read-out: In vivo AUClast (overall exposure)
  AUC(0-t): 4160 ng·h/mL
[4]; read-out: In vivo t1/2
  half-life: 15 min
MV4-11 cells; 0.5 μM
  Early Apoptosis: 9%
MV4-11 cells; 1 μM
  Late Apoptosis: 10%
MV4-11 cells; 2 μM
  Healthy (nonapoptotic): 47%
Acetylation of α-tubulin
  acetylation of α-tubulin (immunofluorescence): weaker acetylation as compared to KT-531
Acetylated histone H3
  acetylated histone H3 levels (Western blot): higher with citarinostat in comparison to KT-531
[5]
  cleavage of PARP-1 and Caspase-3: absence of cleaved Caspase-3 and PARP-1

Reference: publication PMC8237267 (Journal of Medicinal Chemistry, 2021)
